Test results taken from patent US20090137549A1, “Novel compounds useful for the treatment of degenerative & inflamatory diseases” (priority 2006, published 2009).

How the values were obtained:
PDE1A [1] = molecular target: T1, PDE1A (Homo sapiens, UniProt P54750); experiment: PDE1A primary screening, cAMP dynamic HTRF kit from Cisbio; format: biochemical; details: control compounds of the primary screening, 100 nM cAMP
Description: For the primary screening an assay using the cAMP dynamic HTRF® kit from Cisbio (catnr 62AM2PEB) is used. Its principle is based on HTRF® technology (Homogeneous Time-Resolved Fluorescence). The method is a competitive immunoassay between native cAMP and the cAMP labeled with XL665. The tracer binding is visualized by a monoclonal antibody against cAMP, labeled with Cryptate. The specific signal (i.e. energy transfer) is inversely proportional to the concentration of cAMP in the sample (see FIG. 1).
For the enzymatic reaction, a mixture is made of 20 μL with purified PDE1A enzyme, 100 nM cAMP and the compound (10 μM in a final concentration of 1% DMSO) in a black 384-plate. The reaction buffer is Tris 20 mM pH 7.4, 4 μg/mLl calmodulin, 3 mM MgCl2, 1.5 mM CaCl2, 0.2 mg/mL BSA and 0.001% Brij-35®. After an incubation of 30 minutes at room temperature, the reaction is stopped by the addition of 10 μL labelled cAMP-XL665 and 10 μL anti-cAMP-Cryptate. After 1 hour incubation at room temperature, the readout is performed on the Envision (excitation 360 nm; emission donor 615 nm; emission acceptor 665 nm).
PDE1A hydrolyses cAMP into 5′AMP; this low cAMP concentration will result in a high signal. A PDE1A inhibitor will result in a decrease of the signal. […]

PDE1A [2] = molecular target: T1, PDE1A; experiment: PDE1A dose response, Cyclic Nucleotide Phosphodiesterase Assay Kit from Biomol (colorimetric); format: biochemical; details: purified PDE1A enzyme, 100 μM cAMP
Procedure, shortened: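 Purified PDE1A hydrolysed 100 μM cAMP with 5′-nucleotidase in Tris 20 mM pH 7.4 with calmodulin, Ca2+, Mg2+, 45 min at 37° C. Released phosphate read by malachite-green absorbance at 615 nm. Duplicate 8-point 1/3 dilutions from 20 μM, 1% DMSO; 10 μM vardenafil defined 100% inhibition.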

| Compound | IC50 (PDE1A [2]) [nM] | further results |
| --- | --- | --- |
| CCCOc1ccccc1-c1nc2nn[nH]c2c(=O)[nH]1 [Zaprinast] | – | inhibition at 10 µM (PDE1A [1]): ~50% |
| CCCCOc1cc(CC2CNC(=O)N2)ccc1OC (stereo not drawn) [Ro-20-1724] | – | inhibition (PDE1A [1]; 10 μM): 0% |
| O=C(NCCc1c[nH]cn1)N1CC(c2nc3c(cnn3C3CCCCC3)c(=O)[nH]2)C1 [Example 62, N-(2-(1H-imidazol-4-yl)ethyl)-3-(1-cyclohexyl-4-oxo-4,5-dihydro-1H-pyrazolo[3,4-d]pyrimidin-6-yl)azetidine-1-carboxamide] | 101 to 500 | – |
| Cc1nn(C(C)(C)C)c2nc(C3CN(c4nnnn4-c4ccccc4)C3)[nH]c(=O)c12 [Example 139, 1-tert-butyl-3-methyl-6-(1-(1-phenyl-1H-tetrazol-5-yl)azetidin-3-yl)-1H-pyrazolo[3,4-d]pyrimidin-4(5H)-one] | 101 to 500 | – |
| CC(C)(C)n1ncc2c(=O)[nH]c(C3CN(Cc4nc5ccccc5[nH]4)C3)nc21 [Example 175, 6-(1-((1H-Benzo[d]imidazol-2-yl)methyl)azetidin-3-yl)-1-tert-butyl-1H-pyrazolo[3,4-d]pyrimidin-4(5H)-one] | 1000 to 1500 | – |
| COc1ccccc1N1CC(c2nc3c(cnn3C3CCCCC3)c(=O)[nH]2)C1 [Example 169, 1-cyclohexyl-6-(1-(2-methoxyphenyl)azetidin-3-yl)-1H-pyrazolo[3,4-d]pyrimidin-4(5H)-one] | 101 to 500 | – |
| Cc1nn(C(C)(C)C)c2nc(C3CN(C(=O)Nc4ccc(F)cc4)C3)[nH]c(=O)c12 [Example 12, 3-(1-tert-butyl-3-methyl-4-oxo-4,5-dihydro-1H-pyrazolo[3,4-d]pyrimidin-6-yl)-N-(4-fluorophenyl)azetidine-1-carboxamide] | 1 to 100 | – |
| CN1CCN(Cc2cnc(N3CC(c4nc5c(cnn5C5CCCCC5)c(=O)[nH]4)C3)s2)CC1 [Example 137, 1-cyclohexyl-6-(1-(5-((4-methylpiperazin-1-yl)methyl)thiazol-2-yl)azetidin-3-yl)-1H-pyrazolo[3,4-d]pyrimidin-4(5H)-one] | 101 to 500 | – |
| N#C/N=C(/NCC1CCCCC1)N1CC(c2nc3c(cnn3C3CCCCC3)c(=O)[nH]2)C1 [Example 178, N′-Cyano-3-(1-cyclohexyl-4-oxo-4,5-dihydro-1H-pyrazolo[3,4-d]pyrimidin-6-yl)-N-(cyclohexylmethyl)azetidine-1-carboximidamide] | 1 to 100 | – |
| Cc1nn(C2CCCCC2)c2nc(C3CN(C(=O)N(C)Cc4ccc(F)cc4)C3)[nH]c(=O)c12 [Example 170, 3-(1-Cyclohexyl-3-methyl-4-oxo-4,5-dihydro-1H-pyrazolo[3,4-d]pyrimidin-6-yl)-N-(4-fluorobenzyl)-N-methylazetidine-1-carboxamide] | 101 to 500 | – |
| CC(C)N1CCC(CNC(=O)N2CC(c3nc4c(cnn4C4CCCCC4)c(=O)[nH]3)C2)CC1 [Example 184, 3-(1-Cyclohexyl-4-oxo-4,5-dihydro-1H-pyrazolo[3,4-d]pyrimidin-6-yl)-N-((1-isopropylpiperidin-4-yl)methyl)azetidine-1-carboxamide] | 501 to 1000 | – |
| CC(C)N1CCN(Cc2csc(N3CC(c4nc5c(cnn5C5CCCCC5)c(=O)[nH]4)C3)n2)CC1 [Example 143, 1-cyclohexyl-6-(1-(4-((4-isopropylpiperazin-1-yl)methyl)thiazol-2-yl)azetidin-3-yl)-1H-pyrazolo[3,4-d]pyrimidin-4(5H)-one] | 1000 to 1500 | – |
